From ChEMBL document CHEMBL1201862, “PubChem BioAssay data set” (2004)
Several values for one entry are separate records, joined by “and”; a condition that tells them apart may be missing. Equal entries are not always repeated.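 Briefly, cells in 96-well plates were exposed to five compound concentrations for 48 h, and endpoints were estimated by linear interpolation. GI50 is the concentration that inhibits growth by half.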 Activity calls are given as the source filed them. Rule as the data show it: active = GI50 up to about 1.1 µM and inactive = higher.

Assays:
Test in all cases: inhibition of tumour cell growth, NCI panel, 48 h
[1] = system: A549
[2] = system: COLO 205
[3] = system: HOP-92
[4] = system: Hs-578T
[5] = system: LOX IMVI
[6] = system: MDA-MB-435
[7] = system: MDA-N
[8] = system: MOLT-4
[9] = system: Malme-3M
[10] = system: NCI-H226
[11] = system: NCI-H23
[12] = system: NCI-H522
[13] = system: NCI/ADR-RES
[14] = system: RPMI-8226
[15] = system: RXF 393
[16] = system: SN12C
[17] = system: U-251
[18] = system: UACC-62
[19] = system: HCC 2998
[20] = system: MCF7

Measured: GI50

CC1(C)CC2=NC(SSC3=C(C#N)C(c4ccc(Br)cc4)C4=C(O)CC(C)(C)CC4=N3)=C(C#N)C(c3ccc(Br)cc3)C2=C(O)C1 (stereo unspecified)
inactive: [1] > 100 µM | [2] > 100 µM | [3] 70.6 µM | [4] > 100 µM | [5] > 100 µM | [6] > 100 µM | [7] > 100 µM | [8] 59 µM | [9] > 100 µM | [10] > 100 µM | [11] > 100 µM | [12] 57.7 µM | [13] > 100 µM | [14] 67.8 µM | [15] > 100 µM | [16] > 100 µM | [17] > 100 µM | [18] > 100 µM

O=C(O)CNC(=O)c1c2ccccc2nc2ccccc12
inactive: [1] > 100 µM | [2] > 100 µM | [19] > 100 µM | [3] > 100 µM | [5] > 100 µM | [20] > 100 µM | [6] > 100 µM | [8] > 100 µM | [9] > 100 µM | [10] > 100 µM | [11] > 100 µM | [12] > 100 µM | [13] > 100 µM | [14] > 100 µM | [16] > 100 µM | [17] > 100 µM | [18] > 100 µM

COC1C(OC(C)=O)CC(=O)OC(C)C/C=C/C=C\C(O)C(C)CC(CC=O)C1OC1OC(C)C(OC2CC(C)(O)C(OC(=O)CC(C)C)C(C)O2)C(N(C)C)C1O (stereo unspecified)
inactive: [1] > 100 µM | [2] > 100 µM and 69.7 µM | [19] > 100 µM | [3] > 100 µM | [20] > 100 µM and 62.7 µM | [6] 51.1 µM | [7] 61.2 µM | [9] > 100 µM | [10] > 100 µM | [11] > 100 µM | [12] > 100 µM | [13] > 100 µM | [14] > 100 µM and 58.2 µM | [15] 82 µM | [16] > 100 µM | [17] > 100 µM | [18] > 100 µM

O=C1C(Br)=C(C2=CC(=P(c3ccccc3)(c3ccccc3)c3ccccc3)C=C2)C(=O)C(Br)=C1C1=CC(=P(c2ccccc2)(c2ccccc2)c2ccccc2)C=C1
inactive: [1] > 100 µM | [2] > 100 µM | [3] 28.2 µM | [4] > 100 µM | [5] > 100 µM | [20] > 100 µM | [7] > 100 µM | [8] > 100 µM | [9] 18.3 µM | [11] > 100 µM | [12] 19.9 µM | [13] > 100 µM | [14] > 100 µM | [15] > 100 µM | [16] > 100 µM | [17] 16.9 µM | [18] > 100 µM

CN1c2ccccc2C(=O)NC12CCN(CC1COc3ccccc3O1)CC2 (stereo unspecified)
inactive: [1] 50.6 µM | [2] 48.3 µM | [19] > 100 µM | [3] 14 µM | [4] 32.7 µM | [5] 45.1 µM | [20] 31.8 µM | [6] 33.4 µM | [8] 23.1 µM | [9] 33 µM | [10] 19.2 µM | [11] 45.8 µM | [13] 31.6 µM | [14] 30.5 µM | [15] > 100 µM | [17] 40.2 µM | [18] 29.7 µM

CCCCOC(=O)NC(Nc1ccc(S(=O)(=O)Nc2ccc(OC)nn2)cc1)(C(F)(F)F)C(F)(F)F
inactive: [1] > 100 µM | [2] > 100 µM | [19] > 100 µM | [3] 78.2 µM | [5] > 100 µM | [20] > 100 µM | [6] > 100 µM | [7] > 100 µM | [8] > 100 µM | [9] > 100 µM | [10] > 100 µM | [11] > 100 µM | [13] > 100 µM | [14] > 100 µM | [15] > 100 µM | [16] > 100 µM | [17] > 100 µM | [18] > 100 µM

CN(N=O)C(=O)Nc1c[nH]c(=O)[nH]c1=O
inactive: [1] > 100 µM | [2] > 100 µM | [19] > 100 µM | [3] > 100 µM | [5] > 100 µM | [20] > 100 µM | [6] > 100 µM | [7] > 100 µM | [8] > 100 µM | [9] > 100 µM | [10] > 100 µM | [11] > 100 µM | [12] > 100 µM | [13] > 100 µM | [16] > 100 µM | [17] > 100 µM | [18] > 100 µM

CC(=O)OCC(C)C1=C(OC(C)=O)C(=O)C2(C)C/C=C(/C)CC/C=C(\C)CCC(OC(C)=O)C(C)CCC12 (stereo unspecified)
inactive: [2] 20.8 µM | [19] 15.8 µM | [3] 7.23 µM | [4] 25.4 µM | [5] 16.9 µM | [20] 21.3 µM | [6] 15.9 µM | [7] 17.1 µM | [8] 12.9 µM | [14] 14.3 µM | [16] 20.1 µM | [17] 17.1 µM | [18] 14.4 µM

CNc1ccc(Cl)cc1S(=O)(=O)c1ccccc1[N+](=O)[O-]
inactive: [1] > 100 µM | [2] > 100 µM | [19] > 100 µM | [4] 31.1 µM | [5] > 100 µM | [20] > 100 µM | [7] > 100 µM | [8] > 100 µM | [9] > 100 µM | [10] > 100 µM | [11] > 100 µM | [12] > 100 µM | [13] > 100 µM | [14] > 100 µM | [15] > 100 µM | [16] > 100 µM | [17] > 100 µM | [18] > 100 µM

O=C(/C=C/c1cccs1)c1ccc(Cl)s1
inactive: [1] 42.9 µM | [2] > 10 µM | [19] 18.7 µM | [4] 46.7 µM | [20] 17.2 µM | [6] 21.9 µM | [7] > 10 µM | [8] 23.8 µM | [9] > 100 µM | [10] 28.7 µM | [11] 23.1 µM | [13] > 100 µM | [14] 17.5 µM | [16] 18.6 µM | [17] 40.8 µM | [18] 45 µM

COC(=O)Nc1nc2cc(Br)ccc2[nH]1
inactive: [1] 50.8 µM | [2] 23.8 µM | [19] 33.6 µM | [3] > 100 µM | [5] > 100 µM | [8] 53.8 µM | [9] 37.1 µM | [10] > 100 µM | [11] 32.7 µM | [12] 14.4 µM | [14] 51.9 µM | [15] 25.8 µM | [16] > 100 µM | [17] 22.8 µM | [18] 74.5 µM

O=S(=O)(Oc1ccc2oc3ccccc3c2c1-c1c(OS(=O)(=O)C(F)(F)F)ccc2oc3ccccc3c12)C(F)(F)F
inactive: [1] > 100 µM | [2] > 92.3 µM | [19] > 100 µM | [3] > 100 µM | [4] > 100 µM | [5] > 100 µM | [20] > 100 µM | [6] > 100 µM | [8] > 100 µM | [10] > 100 µM | [11] > 100 µM | [12] > 100 µM | [13] > 100 µM | [14] > 100 µM | [15] > 100 µM | [17] > 100 µM | [18] > 100 µM

COc1ccccc1C1SCC(=O)N1c1ccc(-n2c(-c3ccccc3)nc3ccccc3c2=O)cc1 (stereo unspecified)
inactive: [1] 62.7 µM | [2] > 100 µM | [19] 70.6 µM | [3] 19.2 µM | [4] 39.4 µM | [5] 77.8 µM | [20] 39.1 µM | [6] 53.8 µM | [7] > 100 µM | [8] 28.8 µM | [9] 69.2 µM | [10] 74.1 µM | [11] > 100 µM | [12] 40.3 µM | [13] 19.3 µM | [14] > 100 µM | [16] > 100 µM | [17] 73.1 µM | [18] 29.2 µM

NNC(=O)c1nnn(CCc2ccccc2)c1C(=O)NN
inactive: [1] > 100 µM | [2] > 100 µM | [19] > 100 µM | [5] > 100 µM | [20] > 100 µM | [6] > 100 µM | [7] > 100 µM | [8] > 100 µM | [9] > 100 µM | [11] > 100 µM | [13] > 100 µM | [14] > 100 µM | [16] > 100 µM | [17] > 100 µM

COc1ccc(C=O)c([N+](=O)[O-])c1
inactive: [1] > 100 µM | [2] 53.3 µM | [19] > 10 µM | [3] 81.3 µM | [5] 22.1 µM | [8] 4.31 µM | [9] 21.5 µM | [10] 44 µM | [11] > 100 µM | [12] > 100 µM | [14] 23.1 µM | [15] > 100 µM | [16] 41.7 µM | [17] 13.2 µM | [18] 52.6 µM

Cc1cc2c(cc1N)C(C)C1(CCC(=O)N2Cc2ccccc2)OCCO1 (stereo unspecified)
inactive: [1] > 100 µM | [19] > 100 µM | [3] > 100 µM | [4] > 100 µM | [5] > 100 µM | [20] > 100 µM | [6] > 100 µM | [7] > 100 µM | [8] > 100 µM | [9] 89.7 µM | [10] > 100 µM | [11] > 100 µM | [12] > 100 µM | [13] > 100 µM | [14] 57.4 µM | [16] > 100 µM | [17] > 100 µM | [18] > 100 µM
